Target: WelP2 (Hapalosiphon welwitschii, UniProt A0A067YX78)
Assay: in vitro prenyl diphosphate synthase assay
Format: biochemical
Conditions: product formed; details in SI Methods

## CC(C)=CCC/C(C)=C/COP(=O)(O)OP(=O)(O)O [GPP]
  in vitro prenyl diphosphate synthase assay: demonstrated that WelP2 is a dedicated geranyl diphosphate synthase to provide GPP (SI Methods)
